# Literature values in patent US20230226079A1, “METHODS AND COMPOSITIONS FOR TREATMENT OF SOLID TUMORS” (Saint Louis University, priority 2022, published 2023).
# Columns and labels:
# [1] = in vivo; cited from earlier work
# [2] = test system: different models; conditions: cited from earlier work
# [3] = literature; cited from earlier work
Compound,Reported Biology [3],other results
CN1CCN(C2CCN(C(=O)Nc3cc(Oc4ccc(NC(=O)C5(C(=O)Nc6ccc(F)cc6)CC5)c(F)c4)ccn3)CC2)CC1 [Golvatinib],–,"adverse side effects [1]: supraventricular tachycardia, convulsion, and pulmonary embolism"
C=C(C)/C=C/C[C@@H](C)[C@H]1CC[C@@]2(C)[C@@H]3[C@@H](O)C=C4[C@@H](CC[C@H](O)C4(C)C)[C@]3(C=O)CC[C@]12C [kuguacin J],–,anticancer effect [2]: showed anticancer effect
Karayiloside XI,Antidiabetic,–
eleostearic acids,–,anticancer effect [2]: showed anticancer effect
Sacranoside A,nitric oxide inhibitory,–
COc1cc2c(Oc3ccc(NC(=O)C4(C(=O)Nc5ccc(F)cc5)CC4)cc3F)ccnc2cc1OCCCN1CCOCC1 [Foretinib],–,"adverse side effects [1]: fatigue, hypertension, and gastrointestinal toxicities"
C[C@H](C/C=C/C(C)(C)O)[C@H]1CC[C@@]2(C)[C@@H]3[C@@H](O[C@@H]4O[C@H](CO)[C@@H](O)[C@H](O)[C@H]4O)C=C4[C@@H](CC[C@H](O)C4(C)C)[C@]3(C=O)CC[C@]12C [Momordicoside L],Weak α-glucosidase,–
CO[C@H]1C=C2[C@@H](CC[C@H](O[C@@H]3O[C@H](CO)[C@@H](O)[C@@H](O)[C@H]3O)C2(C)C)[C@]2(C)CC[C@]3(C)[C@@H]([C@H](C)C/C=C/C(C)(C)O)CC[C@@]3(C)[C@H]12 [Karaviloside III],cytotoxic activity,–
